Molecular target: PI3Kα H1047R (Homo sapiens, UniProt P42336, H1047R)
Experiment: ADP-Glo assay
Format: biochemical
Conditions: 2 nM H1047R enzyme; 1 hour incubation with compound at room temperature; ATPase reaction 100 min
Experimental: Compounds were plated using acoustic liquid dispensing on the Echo 655T by transferring 50 nL/well compound DMSO solution from an Echo source plate to a 384-well assay plate to generate a 10-point dose response curve with a top final concentration of […], 1:3 serial dilution down; the same volume of DMSO was dispensed to wells designated as positive and negative controls. On the day of the assay, a 2X enzyme solution in the assay buffer (50 mM Tris, 150 mM NaCl, 0.01% Brij35, 15 mM MgCl2, 0.05% Tween-20, and 1 mM DTT) was prepared. The enzyme concentrations used were: 20 nM for wild-type, 2 nM for H1047R and H1047L, and 10 nM for H1047Y proteins. 2.5 µL/well of 2X enzyme solution was dispensed into the assay plates and the enzyme was incubated with the test compound at room temperature for 1 hour; the same volume of assay buffer without enzyme was dispensed to wells designated as positive controls. At the end of the incubation, 2.5 µL/well of 2X ATP solution in assay buffer was dispensed to initiate the ATPase reaction and incubated at room temperature for 100 min. Reactions were terminated and ADP production measured using the ADP-Glo kit following instructions from the manufacturer.
The IC50(nM) ranges are as follows: A denotes <200 nM; B denotes 200 nM≤IC50<500 nM; C denotes ≥500 nM. ND denotes value not determined with that assay for the specified compound.

Sequence of PI3Kα H1047R (P42336 whole entry H1047R): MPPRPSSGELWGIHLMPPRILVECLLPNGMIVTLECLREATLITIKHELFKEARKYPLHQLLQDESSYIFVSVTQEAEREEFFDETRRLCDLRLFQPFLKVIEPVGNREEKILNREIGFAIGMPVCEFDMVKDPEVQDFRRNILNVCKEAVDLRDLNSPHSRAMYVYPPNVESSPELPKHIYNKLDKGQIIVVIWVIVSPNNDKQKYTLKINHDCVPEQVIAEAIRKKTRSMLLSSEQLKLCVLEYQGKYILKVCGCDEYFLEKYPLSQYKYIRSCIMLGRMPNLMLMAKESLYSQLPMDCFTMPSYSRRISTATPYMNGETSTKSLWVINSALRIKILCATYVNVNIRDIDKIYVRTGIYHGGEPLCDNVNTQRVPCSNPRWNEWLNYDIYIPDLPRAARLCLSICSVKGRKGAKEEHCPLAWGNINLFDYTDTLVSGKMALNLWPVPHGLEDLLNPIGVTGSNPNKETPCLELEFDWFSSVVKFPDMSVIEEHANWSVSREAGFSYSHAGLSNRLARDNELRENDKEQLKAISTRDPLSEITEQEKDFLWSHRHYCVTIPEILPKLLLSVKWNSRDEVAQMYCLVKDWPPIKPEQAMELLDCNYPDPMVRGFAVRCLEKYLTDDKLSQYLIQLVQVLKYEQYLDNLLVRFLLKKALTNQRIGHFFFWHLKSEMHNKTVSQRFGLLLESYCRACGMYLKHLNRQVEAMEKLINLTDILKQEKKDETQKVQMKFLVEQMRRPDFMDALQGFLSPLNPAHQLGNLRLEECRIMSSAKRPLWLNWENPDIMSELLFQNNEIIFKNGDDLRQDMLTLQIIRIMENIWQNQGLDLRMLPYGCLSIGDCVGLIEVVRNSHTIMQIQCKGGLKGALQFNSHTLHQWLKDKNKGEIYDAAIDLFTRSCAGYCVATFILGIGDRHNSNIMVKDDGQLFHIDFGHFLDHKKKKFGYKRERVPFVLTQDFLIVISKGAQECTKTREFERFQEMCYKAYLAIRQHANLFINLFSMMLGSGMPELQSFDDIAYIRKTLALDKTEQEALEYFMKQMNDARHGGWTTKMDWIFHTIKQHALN
Sequence of PI3Kα H1047R (P27986 whole entry partner): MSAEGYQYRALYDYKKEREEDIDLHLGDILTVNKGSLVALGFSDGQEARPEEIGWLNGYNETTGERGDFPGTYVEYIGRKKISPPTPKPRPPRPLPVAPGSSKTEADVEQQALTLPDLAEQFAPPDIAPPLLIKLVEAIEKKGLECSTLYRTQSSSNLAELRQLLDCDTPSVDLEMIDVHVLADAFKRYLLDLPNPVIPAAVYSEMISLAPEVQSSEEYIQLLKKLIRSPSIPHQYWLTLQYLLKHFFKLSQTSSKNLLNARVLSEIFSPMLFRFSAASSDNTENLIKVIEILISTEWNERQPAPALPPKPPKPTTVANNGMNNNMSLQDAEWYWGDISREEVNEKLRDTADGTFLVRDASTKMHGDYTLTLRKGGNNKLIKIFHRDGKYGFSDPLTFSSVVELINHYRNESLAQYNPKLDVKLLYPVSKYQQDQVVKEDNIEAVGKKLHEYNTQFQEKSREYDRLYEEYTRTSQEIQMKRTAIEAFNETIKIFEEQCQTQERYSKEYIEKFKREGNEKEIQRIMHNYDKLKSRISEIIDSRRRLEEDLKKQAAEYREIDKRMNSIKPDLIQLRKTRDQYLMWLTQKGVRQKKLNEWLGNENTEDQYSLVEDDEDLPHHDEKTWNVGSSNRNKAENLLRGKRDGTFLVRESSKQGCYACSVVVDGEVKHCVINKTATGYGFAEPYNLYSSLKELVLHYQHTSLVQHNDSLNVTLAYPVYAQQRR

| Structure (SMILES) | IC50 |
| --- | --- |
| Cn1c(C(NC(=O)Nc2cnc(N)nc2)C(F)(F)F)cc2ccc(F)cc21 (stereo not shown) [Compound 1, 1-(2-aminopyrimidin-5-yl)-3-[2,2,2-trifluoro-1-(6-fluoro-1-methylindol-2-yl)ethyl]urea] | < 0.2 µM |
| Cc1c([C@@H](NC(=O)Nc2cnc(N)nc2)C(F)(F)F)n(C)c2c(F)cc(F)cc12 [Compound 3, 1-(2-aminopyrimidin-5-yl)-3-[(1R)-1-(5,7-difluoro-1,3-dimethylindol-2-yl)-2,2,2-trifluoroethyl]ureas] | 0.2 to 0.5 µM |
| Cc1c([C@@H](NC(=O)Nc2cnc(N)nc2)C(F)(F)F)nc2ccc(F)cn12 (racemic) [Compound 11] | ≥ 0.5 µM |
| Cn1c([C@@H](NC(=O)Nc2cnc(N)nc2)C(F)(F)F)cc2c(F)cc(F)cc21 (racemic) [Compound 9] | < 0.2 µM |
| CC(C)C(NC(=O)Nc1cnc(N)nc1)c1cc2ccc(F)cc2n1C (stereo not shown) [Compound 2, 1-(2-aminopyrimidin-5-yl)-3-[1-(6-fluoro-1-methylindol-2-yl)-2-methylpropyl]urea] | < 0.2 µM |
| Cc1c([C@@H](NC(=O)Nc2cnc(N)nc2)C(F)(F)F)nn2ccccc12 (racemic) [Compound 5] | ≥ 0.5 µM |
| Cn1c([C@@H](NC(=O)Nc2cnc(N)nc2)C(F)(F)F)nc2c(F)cc(F)cc21 (racemic) [Compound 7] | < 0.2 µM |
